Experimental findings from US11564914B2, “Methods of treating bone loss” (THE REGENTS OF THE UNIVERSITY OF CALIFORNIA, priority 2016, dated 2023) are described below.

The structures appear in SMILES notation. Bounds are passed on as bounds.

Series [1] in a line: metabolic stability (method not given).
In another series the target is T1, sEH (Homo sapiens, UniProt P34913).
T1 sequence (P34913 1-555): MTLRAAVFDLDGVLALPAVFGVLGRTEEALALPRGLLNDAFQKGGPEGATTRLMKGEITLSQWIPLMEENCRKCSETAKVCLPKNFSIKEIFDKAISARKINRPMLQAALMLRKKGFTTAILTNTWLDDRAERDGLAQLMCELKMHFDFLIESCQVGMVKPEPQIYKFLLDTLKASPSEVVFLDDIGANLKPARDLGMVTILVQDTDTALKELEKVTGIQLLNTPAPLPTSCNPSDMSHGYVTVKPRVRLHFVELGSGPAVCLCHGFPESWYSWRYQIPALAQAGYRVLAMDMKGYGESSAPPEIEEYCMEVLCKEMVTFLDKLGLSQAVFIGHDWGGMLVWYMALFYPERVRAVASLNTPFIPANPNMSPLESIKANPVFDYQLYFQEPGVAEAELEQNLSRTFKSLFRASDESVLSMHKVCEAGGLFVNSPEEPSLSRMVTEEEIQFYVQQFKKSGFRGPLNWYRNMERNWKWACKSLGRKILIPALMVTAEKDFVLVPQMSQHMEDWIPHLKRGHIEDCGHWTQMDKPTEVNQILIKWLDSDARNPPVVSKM
Nature of the series: testing as sEH inhibitors (method not given). The format is biochemical.

Series [2] in a line: blood concentration of TPPU by LC-MS. The series is classed as in vivo. Particulars: mouse, whole blood; mice, 24 h after last oral administration, after 15 days at 1 mg/kg/day. Here is the method:
The samples were taken at 24 h after the last oral gavage treatment. […] The results are expressed as mean±SD from six mice per group.
Animals orally received 1×10^9 CFU/ml of a diluted culture of freshly grown A. actinomycetemcomitans JP2, in a volume of 100 μl PBS containing 2% carboxymethylcellulose. The solution was placed into the oral cavity with a micropipette, and the procedure was repeated at 48 and 96 h after the first inoculation. Treatment with TPPU and EETs was initiated after the third inoculation of bacteria. The inhibitor was dissolved in PEG400 and administered at 1 mg/kg/day by oral gavage. For the treatment with EETs, we attempted to apply viscous solution of mixture of EET-methyl ester regioisomers dissolved in PEG400 to the gum tissue using a fine pipette at a dose of 1 μg/kg/day. The mice received the entire EET dose. This was done immediately before the oral gavage with both groups of mice receiving TPPU or mice receiving vehicle alone. Because EETs are unstable in stomach acid we assume exposure is largely topical or buccal. All treatments continued for 15 days. […] The negative control group consisted of uninfected mice (sham-infected), the positive control group was infected and received the vehicle only. One day after the treatment period (16th day), animals were sacrificed by cardiac puncture after anesthesia with xylazine/ketamine. […]

On to `CCCCCCCCCCCCNC(=O)NC12CC3CC(CC(C3)C1)C2` [ADU, N-Adamantyl-N′-dodecyl urea], for which, in series [1], the metabolic stability result is “metabolically stable”. Moreover, on sEH, the “activity as inhibitor of sEH” value was “particularly high activity”.

With `CCC(=O)N1CCC(NC(=O)Nc2ccc(OC(F)(F)F)cc2)CC1` [TPPU, 1-trifluoromethoxyphenyl-3-(1-propionylpiperidin-4-yl) urea], the concentration at 24 h in series [2] was more than 8000 ng/mL.
